Measurements: US20250243488A1, “METHODS OF MODULATING PROGRANULIN EXPRESSION USING ANTISENSE OLIGONUCLEOTIDES TARGETING REGULATORY RNAS” (Camp4 Therapeutics Corporation, priority 2022, published 2025)
Oligonucleotides are written 5' to 3', each unit as a sugar letter and its base; * is a phosphorothioate linkage, no mark a phosphodiester; rarer units and linkages stand in square brackets, end groups in braces. Plain capitals give the bases only. e = 2'-O-(2-methoxyethyl) (MOE); l = locked nucleic acid (LNA); [5mC] = 5-methylcytosine; d = 2'-deoxy (DNA)

System: GRN mRNA
Experiment: GRN mRNA qPCR in SK-N-AS cells transfected with ASOs
Type: cell-based, human
Details: SK-N-AS; for hGRN mRNA FC / 120 nM FC (GRN mRNA): 120 nM
Method: The best ASOs based on increased GRN mRNA fold-change were selected for further characterization in dose titration studies. Briefly, human neuroblastoma SK-N-AS cells were transfected with 20 to 160 nM of ASOs CO-3423, CO-3431, CO-3463, and CO-3503. A steric non-targeting control ASO (sNTC) was used as a control. Cells were collected for mRNA analysis after 48 hours and GRN mRNA quantified by qPCR. Housekeeping genes for normalization were GAPDH and PPIA, and mRNA fold change (FC) was normalized to sNTC.
36 additional ASOs were designed with different modifications and base walking around selected ASOs. The effect of increasing doses of these ASOs was assessed in the human neuroblastoma cell line SK-N-AS following transfection. Relative GRN mRNA levels in SK-N-AS cells after treatment was assessed 48-hours post-transfection, and data from exemplary ASOs is shown in FIGS. 5A and 5B.
Additional chemical modifications, including LNA, modifications were made to CO-3423. SK-N-AS cells were transfected with increasing concentrations of the LNA/PS modified ASOs and GRN mRNA quantified by qPCR. ASOs including different LNA modifications of CO-3423 had similar efficacy (i.e, similar increased GRN mRNA expression). GRN mRNA was normalized to the average fold-change of cells treated with two steric non-targeting control ASOs (CO-3772 and CO-1589 (sNTC1)).
The effect of ASO length on GRN gene expression modulation was also investigated. SK-N-AS cells were transfected with increasing concentrations of the longer ASOs and GRN mRNA quantified by qPCR. Increasing the length of CO-3423 increased the potency of the ASO, as shown in Table 4. mRNA was normalized to the average fold change of cells treated with two steric non-targeting control ASOs (CO-3772 and CO-1589 (sNTC1)).
To determine whether variations in the PO/PS internucleotide bond linkages impacted the ability of CO-3423 and CO-3431 to modulate gene expression, several modified ASOs based on these parent ASOs were prepared. SK-N-AS cells were transfected with increasing concentrations of the mixed PO/PS bond ASOs described in Tables 5 and 6, and GRN mRNA quantified by qPCR.
GRN mRNA fold-change after treatment with mixed PO/PS bond versions of CO-3423 is shown in Table 5. mRNA was normalized to the average fold change of cells treated with steric nontargeting controls (CO-3772, CO-1589 (sNTC1), and CO-1929 (sNTC3)).
GRN mRNA fold-change after treatment with mixed PO/PS bond versions of CO-3431 is shown in Table 6. mRNA was normalized as described above.
To further assess the effect of additional modifications on the ability of CO-3423 parent ASO to modulate GRN gene expression, additional LNA tiling and PO bond modifications were incorporated to CO-3423. SK-N-AS cells were transfected with increasing concentrations of the modified ASOs and GRN mRNA quantified by qPCR. CO-3423 was used for comparison. GRN mRNA was normalized to the average fold-change of cells treated with a steric non-targeting control ASO, CO-1589 (sNTC1).
To further assess the effect of modifications on the ability of CO-3463 parent ASO to modulate GRN gene expression, ASOs based on this ASOS incorporating additional LNA modifications were prepared and compared to […]. SK-N-AS cells were transfected with increasing concentrations of the ASOs and GRN mRNA quantified by qPCR. GRN mRNA was normalized to the average fold-change of cells treated with a steric non-targeting control ASO, CO-1589 (sNTC1).
68 additional ASOs were designed to target intergenic enhancers (eRNA). 48 hours post-transfection, the cells were collected for GRN mRNA analysis using qPCR. CO-1589, a steric nontargeting control ASO, was used as a control. GRN mRNA was normalized to cells treated with CO-1589.
The best hits from these ASOs were tested in a dose escalation study. Cells were incubated for 48 hours. Subsequently, the cells were collected for mRNA quantification via RT-qPCR. […]

[1] = Table 9, 48 hours post-transfection, normalized to CO-1589
[2] = Table 12, normalized to CO-1589
[3] = Table 5, normalized to CO-3772, CO-1589 and CO-1929
[4] = Table 8, normalized to CO-1589 (sNTC1)
[5] = Table 11, 48 hours, normalized to CO-1589
[6] = Table 7, normalized to CO-1589 (sNTC1)
[7] = Table 4, normalized to CO-3772 and CO-1589 (sNTC1)
[8] = Table 13, normalized to CO-1589

CO-4592: ASO designed to target intergenic enhancers (eRNA) (antisense eG*eG*eT*e[5mC]*eA*e[5mC]*eA*eG*eA*eT*eT*eG*e[5mC]*eA*e[5mC]*eT*e[5mC]*eT*e[5mC]*e[5mC])
hGRN mRNA FC [1]: 1.1 FC

CO-6391: ASO based on parent ASO CO-3462 (antisense eT*eA*eG*eG*eA*lG*eA*eA*lT*e[5mC]*eG*l[5mC]*eT*eT*lT*eG*eG*eG*eA*eG)
30 nM FC (GRN mRNA) [2]: 1.3 FC | 60 nM FC (GRN mRNA) [2]: 1.0 FC | 120 nM FC (GRN mRNA) [2]: 1.6 FC

CO-6384: ASO based on parent ASO CO-3462 (antisense eG*eT*eA*eG*eG*eA*eG*eA*eA*eT*e[5mC]*eG*e[5mC]*eT*eT*eT*eG*eG*eG*eA)
30 nM FC (GRN mRNA) [2]: 1.0 FC | 60 nM FC (GRN mRNA) [2]: 1.0 FC | 120 nM FC (GRN mRNA) [2]: 1.5 FC

CO-4453: mixed PO/PS bond version of CO-3423 (antisense eG*eG*eAe[5mC]eT*eT*eG*eG*eG*eA*eG*eT*eG*eG*eT*eGeAe[5mC]*eT*eG)
30 nM FC (GRN mRNA) [3]: 1.4 FC | 60 nM FC (GRN mRNA) [3]: 1.9 FC | 120 nM FC (GRN mRNA) [3]: 1.9 FC

CO-5289: ASO based on CO-3463 incorporating additional LNA modifications (antisense GGATAGGATAGGAGCGAGCC; LNA/MOE mixmer, PS backbone, 5-methylcytosine; listed as RNA; modified_base 1..20: mod_base = OTHER; note = Phosphorothioate linkage; modified_base 1..2: mod_base = OTHER; note = locked nucleic acid; modified_base 3: mod_base = OTHER; note = 2'-O-(2-methoxyethyl) ribonucleotide; modified_base 4: mod_base)
GRN mRNA upregulation as compared to control ASO CO-1589 (Table 8 series): 2 fold | 7.5 nM FC (GRN mRNA) [4]: 1.4 FC | 13 nM FC (GRN mRNA) [4]: 1.4 FC | 30 nM FC (GRN mRNA) [4]: 1.5 FC | 60 nM FC (GRN mRNA) [4]: 1.9 FC | 120 nM FC (GRN mRNA) [4]: 1.9 FC | 150 nM FC (GRN mRNA) [4]: 1.9 FC

CO-6431: ASO designed to target an intragenic enhancer RNA (eRNA) (eA*e[5mC]*eG*eG*eA*e[5mC]*e[5mC]*eT*e[5mC]*e[5mC]*eT*e[5mC]*eA*e[5mC]*eT*eA*eA*eG*e[5mC]*eT)
hGRN mRNA FC [5]: 0.8 FC

CO-5266: CO-3423 with additional LNA tiling and PO bond modifications (antisense GGACTTGGGAGTGGTGACTG; 2'-MOE, mixed PS/PO, 5-methylcytosine; listed as RNA; modified_base 1..7: mod_base = OTHER; note = Phosphorothioate linkage; modified_base 17..20: mod_base = OTHER; modified_base 1..20: mod_base = OTHER; note = 2'-O-(2-methoxyethyl) ribonucleotide; modified_base 4)
7.5 nM FC (GRN mRNA) [6]: 1.0 FC | 13 nM FC (GRN mRNA) [6]: 1.0 FC | 30 nM FC (GRN mRNA) [6]: 1.2 FC | 60 nM FC (GRN mRNA) [6]: 1.7 FC | 120 nM FC (GRN mRNA) [6]: 2.0 FC | 150 nM FC (GRN mRNA) [6]: 2.2 FC

CO-4641: ASO designed to target intergenic enhancers (eRNA) (antisense e[5mC]*eG*eT*eT*e[5mC]*e[5mC]*eA*eA*eA*e[5mC]*eA*eG*e[5mC]*eA*eG*e[5mC]*eG*eT*eT*eA)
hGRN mRNA FC [1]: 0.9 FC

CO-6446: ASO designed to target an intragenic enhancer RNA (eRNA) (eT*eG*e[5mC]*eT*eG*eT*eG*eA*eG*e[5mC]*eT*eG*e[5mC]*e[5mC]*e[5mC]*eA*eG*eT*eG*eG)
hGRN mRNA FC [5]: 1.1 FC

CO-6393: ASO based on parent ASO CO-3462 (antisense eT*eA*lG*eG*lA*eG*lA*eA*lT*e[5mC]*lG*e[5mC]*lT*eT*lT*eG*lG*eG*eA*eG)
30 nM FC (GRN mRNA) [2]: 0.9 FC | 60 nM FC (GRN mRNA) [2]: 0.7 FC | 120 nM FC (GRN mRNA) [2]: 1.0 FC

CO-6438: ASO designed to target an intragenic enhancer RNA (eRNA) (e[5mC]*eT*eA*e[5mC]*eT*eG*eA*eG*e[5mC]*e[5mC]*eT*eG*eG*eA*eA*eG*eT*eG*eA*e[5mC])
hGRN mRNA FC [5]: 1.2 FC

CO-4364: longer ASO based on CO-3423 (antisense eG*eG*eA*e[5mC]*eT*eT*eG*eG*eG*eA*eG*eT*eG*eG*eT*eG*eA*e[5mC]*eT*eG*eA*eA*e[5mC])
30 nM FC (GRN mRNA) [7]: 1.1 FC | 60 nM FC (GRN mRNA) [7]: 1.3 FC | 120 nM FC (GRN mRNA) [7]: 1.6 FC | 7.5 nM FC (GRN mRNA) [6]: 1.1 FC | 13 nM FC (GRN mRNA) [6]: 1.2 FC | 30 nM FC (GRN mRNA) [6]: 1.7 FC | 60 nM FC (GRN mRNA) [6]: 2.1 FC | 120 nM FC (GRN mRNA) [6]: 1.9 FC | 150 nM FC (GRN mRNA) [6]: 2.3 FC | 30 nM FC (GRN mRNA) [8]: 1.1 FC | 60 nM FC (GRN mRNA) [8]: 1.5 FC | 120 nM FC (GRN mRNA) [8]: 1.6 FC

CO-4647: ASO designed to target intergenic enhancers (eRNA) (antisense e[5mC]*eT*eA*eA*eG*e[5mC]*eG*eT*eT*eT*e[5mC]*eT*e[5mC]*eT*eA*eG*eT*e[5mC]*eA*eT)
hGRN mRNA FC [1]: 0.8 FC

CO-6406: ASO based on parent ASO CO-3462 (antisense eG*eG*eT*eA*eG*dG*dA*lG*dA*dA*lT*d[5mC]*dG*l[5mC]*dT*dT*lT*dG*dG*eG*eA*eG*e[5mC]*eA)
30 nM FC (GRN mRNA) [2]: 1.4 FC | 60 nM FC (GRN mRNA) [2]: 1.4 FC | 120 nM FC (GRN mRNA) [2]: 1.7 FC
